Experiment: LogP by HPLC on reversed phase columns (EEC directive 79/831 Annex V.A8)
Assay type: physicochemical
Conditions: not given
Protocol: In the above tables, measurement of LogP values was performed according to EEC directive 79/831 Annex V.A8 by HPLC (High Performance Liquid Chromatography) on reversed phase columns with the following methods: • ^[a]
Calibration was done with straight-chain alkan2-ones (with 3 to 16 carbon atoms) with known LogP values (measurement of LogP values using retention times with linear interpolation between successive alkanones). Lambda-max-values were determined using UV-spectra from 200 nm to 400 nm and the peak values of the chromatographic signals.

LogP | Structure (SMILES)
2.44^[a] | CN(CC#N)C(=O)C1(NC(=O)c2sc(Cl)c(Cl)c2Cl)CC1 [I.052]
4.61^[a] | CCOC(=O)C1(NC(=O)c2sc(Cl)c(Cl)c2Cl)CCCC1 [I.070]
5.11^[a] | COC(=O)C(C)(Cc1ccccc1)NC(=O)c1sc(Cl)c(Cl)c1Cl (centres unmarked) [I.122]
3.92^[a] | CCOC(=O)C1(NC(=O)c2sc(Cl)c(Cl)c2Cl)CSC1 [I.085]
4.27^[a] | CCOC(=O)C1(CNC(=O)c2sc(Cl)c(Cl)c2Cl)CC1 [I.045]
3.81^[a] | CC(C)C(C#N)NC(=O)c1sc(Cl)c(Cl)c1Cl (centres unmarked) [I.130]
2.24^[a] | O=C(N[C@H]1CCCNC1=O)c1sc(Cl)c(Cl)c1Cl [I.126]
4.47^[a] | CCOC(=O)C(CCSC)NC(=O)c1sc(Cl)c(Cl)c1Cl (centres unmarked) [I.084]
3.01^[a] | CSCCC(NC(=O)c1sc(Cl)c(Cl)c1Cl)C(=O)O (centres unmarked) [I.051]
3.00^[a] | COC(=O)C1(NC(=O)c2sc(Cl)c(Cl)c2Cl)CCOCC1 [I.071]
5.00^[a] | N#CC1(NC(=O)c2sc(Cl)c(Cl)c2Cl)CCC(c2ccccc2)CC1 (centres unmarked) [I.131]
3.50^[a] | COC(=O)C1(NC(=O)c2sc(Cl)c(Cl)c2Cl)CSC1 [I.080]
5.28^[a] | CC(C)(C)OC(=O)C1(NC(=O)c2sc(Cl)c(Cl)c2Cl)CCC1 [I.097]
3.64^[a] | CCOC(=O)CN(OC)C(=O)c1sc(Cl)c(Cl)c1Cl [I.018]
3.20^[a] | CN(C)C(=S)C1(NC(=O)c2sc(Cl)c(Cl)c2Cl)CC1 [I.115]
2.45^[a] | N#CNC(=O)CNC(=O)c1sc(Cl)c(Cl)c1Cl [I.106]
5.45^[a] | CCSC(=O)C(NC(=O)c1sc(Cl)c(Cl)c1Cl)C(C)C (centres unmarked) [I.090]
3.31^[a] | O=C(NC(Cc1c[nH]c2ccccc12)C(=O)O)c1sc(Cl)c(Cl)c1Cl (centres unmarked) [I.003]
2.19^[a] | COC(=O)[C@H](CCC(N)=O)NC(=O)c1sc(Cl)c(Cl)c1Cl [I.082]

LogP | Structure (SMILES)
2.07^[a] | CNC(=O)CNC(=O)c1sc(Cl)c(Cl)c1Cl [I.073]
2.21^[a] | N#CCNC(=O)CNC(=O)c1sc(Cl)c(Cl)c1Cl [I.062]
5.20^[a] | CCCCOC(=O)C1(NC(=O)c2sc(Cl)c(Cl)c2Cl)CCC1 [I.099]
3.99^[a] | COC(=O)C1(NC(=O)c2sc(Cl)c(Cl)c2Cl)CCC(F)(F)CC1 [I.072]
5.54^[a] | CCSC(=O)C(CC(C)C)NC(=O)c1sc(Cl)c(Cl)c1Cl (centres unmarked) [I.039]
3.57^[a] | CCOC(=O)C(NC(=O)c1sc(Cl)c(Cl)c1Cl)OC (centres unmarked) [I.017]
3.92^[a] | N#CC(NC(=O)c1sc(Cl)c(Cl)c1Cl)c1ccccc1 (centres unmarked) [I.034]
3.19^[a] | COC(=O)[C@H](Cc1ccccc1)NC(=O)[C@H](CC(=O)O)NC(=O)c1sc(Cl)c(Cl)c1Cl [I.074]
3.64^[a] | COC(=O)CC(C)NC(=O)c1sc(Cl)c(Cl)c1Cl (centres unmarked) [I.135]
5.34^[a] | CCSC(=O)C(NC(=O)c1sc(Cl)c(Cl)c1Cl)C(C)C (centres unmarked) [I.040]
3.17^[a] | O=C(NC1CCSC1=O)c1sc(Cl)c(Cl)c1Cl (centres unmarked) [I.023]
5.35^[a] | CC(C)OC(=O)C1(C2(NC(=O)c3sc(Cl)c(Cl)c3Cl)CC2)CC1 [I.027]
4.04^[a] | CC1(C)SC(=O)C1NC(=O)c1sc(Cl)c(Cl)c1Cl (centres unmarked) [I.024]
4.74^[a] | CC(C)OC(=O)C1(NC(=O)c2sc(Cl)c(Cl)c2Cl)CCC1 [I.150]
3.75^[a] | CCSC(=O)CNC(=O)c1sc(Cl)c(Cl)c1Cl [I.036]
3.24^[a] | O=C(N[C@H]1CCSC1=O)c1sc(Cl)c(Cl)c1Cl [I.043]
4.19^[a] | CCOC(=O)C(NC(=O)c1sc(Cl)c(Cl)c1Cl)C(=O)OCC [I.006]
4.47^[a] | CCOC(=O)C1(NC(=O)c2sc(Cl)c(Cl)c2Cl)CN(C(=O)OC(C)(C)C)C1 [I.057]

Same assay, conditions: reversed phase HPLC columns, given in the preparation examples; method not marked

chromatographic logP | Structure (SMILES)
2.39 | O=C(NC1(C(=O)O)CC1)c1sc(Cl)c(Cl)c1Cl [1-{[(3,4,5-trichloro-2-thienyl)carbonyl]amino}cyclopropanecarboxylic acid]

From patent US20230055705A1, “SUBSTITUTED THIOPHENE CARBOXAMIDES AND DERIVATIVES THEREOF” (Bayer Aktiengesellschaft, priority 2019, published 2023)
